The record followed here is the NIST ThermoML archive (doi:10.1021/je050544m).

± gives the expanded uncertainty stated by the source.

This data set is described as follows: activity coefficient (dimensionless); of the first substance listed, at infinite dilution; xn = mol fraction of the nth substance listed. To be noted: 101 kPa, Liquid, Chromatography, x1 = 0.

On to `CCC(C)=O` [butanone] + CCn1cc[n+](C)c1.F[B-](F)(F)F, for which the activity coefficient (323 K) came to 1.66 ± 0.17 and the activity coefficient (343 K) came out at 1.77 ± 0.18.
The corresponding values for `ClCCCl` [1,2-dichloroethane] + CCCCn1cc[n+](C)c1.F[B-](F)(F)F are 1.51 ± 0.16 and 1.63 ± 0.17.
For `CCOCC` [diethyl ether] + CCCCCCn1cc[n+](C)c1.F[B-](F)(F)F, the activity coefficient (343 K) worked out at 2.53 ± 0.27.
Take `CCCCCC` [hexane] + CCCCn1cc[n+](C)c1.F[B-](F)(F)F: the activity coefficient is, setting by setting: (303 K) 93.4 ± 9.8; (323 K) 76.5 ± 8.1; (343 K) 67.5 ± 7.1.
Regarding `CCO` [ethanol] + CCCCCCCC[n+]1ccn(C)c1.F[B-](F)(F)F, the activity coefficient came to 1.24 ± 0.13 (323 K) and 1.1 ± 0.11 (343 K).
In the case of `C1CCCCC1` [cyclohexane] + CCCCCCCC[n+]1ccn(C)c1.F[B-](F)(F)F, the activity coefficient was determined as 8.52 ± 0.9 (303 K), 7.99 ± 0.84 (323 K) and 7.36 ± 0.77 (343 K).
For the compound `CO` [methanol] + CCCCCCCC[n+]1ccn(C)c1.F[B-](F)(F)F, the activity coefficient stood at 1.09 ± 0.11 (303 K), 0.94 ± 0.1 (323 K) and 0.85 ± 0.09 (343 K).
For `CCOC(C)=O` [ethyl acetate] + CCCCn1cc[n+](C)c1.F[B-](F)(F)F, the activity coefficient was found to be 2.86 ± 0.3 (323 K) and 2.99 ± 0.31 (343 K).
In the case of `CCCCCCC` [heptane] + CCn1cc[n+](C)c1.F[B-](F)(F)F, the activity coefficient came out at 202 ± 21 (303 K), 173 ± 18 (323 K) and 139 ± 15 (343 K).
Taken in the same sequence, the figures for `c1ccccc1` [benzene] + CCn1cc[n+](C)c1.F[B-](F)(F)F were 2.42 ± 0.25, 2.51 ± 0.26 and 2.47 ± 0.26.
Taken in the same sequence, the figures for `CC(C)CC(C)(C)C` [2,2,4-trimethylpentane] + CCn1cc[n+](C)c1.F[B-](F)(F)F were 222 ± 23, 168 ± 18 and 162 ± 17.
Regarding `ClC(Cl)(Cl)Cl` [tetrachloromethane] + CCCCCCn1cc[n+](C)c1.F[B-](F)(F)F, the activity coefficient stood at 3.3 ± 0.35 (323 K) and 3.61 ± 0.38 (343 K).
For the compound `CC(C)CC(C)(C)C` [2,2,4-trimethylpentane] + CCCCCCn1cc[n+](C)c1.F[B-](F)(F)F, the activity coefficient by setting is: (303 K) 54.1 ± 5.7; (343 K) 44.5 ± 4.7.
Consider `CC(C)=O` [acetone] + CCn1cc[n+](C)c1.F[B-](F)(F)F, for which the activity coefficient (323 K) came out at 1.11 ± 0.11 and the activity coefficient (343 K) is 1.14 ± 0.12.
As to `CCCCCC` [hexane] + CCn1cc[n+](C)c1.F[B-](F)(F)F, the activity coefficient came out at 125 ± 13 (303 K), 113 ± 12 (323 K) and 64.8 ± 6.8 (343 K).
On to `CCOC(C)=O` [ethyl acetate] + CCn1cc[n+](C)c1.F[B-](F)(F)F, for which the activity coefficient by setting is: (323 K) 3.08 ± 0.32; (343 K) 3.32 ± 0.35.
As for `ClC=C(Cl)Cl` [trichloroethene] + CCCCCCn1cc[n+](C)c1.F[B-](F)(F)F, the activity coefficient (343 K) was determined as 2.53 ± 0.27.
As to `ClC=C(Cl)Cl` [trichloroethene] + CCn1cc[n+](C)c1.F[B-](F)(F)F, the activity coefficient (323 K) was 3.66 ± 0.38 and the activity coefficient (343 K) worked out at 3.79 ± 0.4.
The corresponding values for `CCCO` [propan-1-ol] + CCCCCCn1cc[n+](C)c1.F[B-](F)(F)F are 1.86 ± 0.19 and 1.63 ± 0.17.
Taken in the same sequence, the figures for `CC(C)CC(C)(C)C` [2,2,4-trimethylpentane] + CCCCCCCC[n+]1ccn(C)c1.F[B-](F)(F)F were 17.7 ± 1.9 and 17 ± 1.8.
As to `CCCCCC` [hexane] + CCCCCCn1cc[n+](C)c1.F[B-](F)(F)F, the activity coefficient is, setting by setting: (303 K) 34.8 ± 3.7; (323 K) 29.6 ± 3.1; (343 K) 26.1 ± 2.7.
With `ClCCCl` [1,2-dichloroethane] + CCCCCCCC[n+]1ccn(C)c1.F[B-](F)(F)F, the activity coefficient was found to be 0.93 ± 0.09 (323 K) and 0.95 ± 0.1 (343 K).
Taken in the same sequence, the figures for `ClC(Cl)Cl` [trichloromethane] + CCCCCCn1cc[n+](C)c1.F[B-](F)(F)F were 0.81 ± 0.08 and 0.92 ± 0.09.
Take `CCOC(C)=O` [ethyl acetate] + CCCCCCCC[n+]1ccn(C)c1.F[B-](F)(F)F: the activity coefficient was determined as 1.55 ± 0.16 (323 K) and 1.62 ± 0.17 (343 K).
On to `Cc1ccccc1` [toluene] + CCn1cc[n+](C)c1.F[B-](F)(F)F, for which the activity coefficient (343 K) came to 4.03 ± 0.42.
Turning to `CC(C)=O` [acetone] + CCCCCCCC[n+]1ccn(C)c1.F[B-](F)(F)F, the activity coefficient (323 K) stood at 0.78 ± 0.08 and the activity coefficient (343 K) is 0.83 ± 0.09.
The corresponding values for `CCC(C)=O` [butanone] + CCCCCCn1cc[n+](C)c1.F[B-](F)(F)F are 1.14 ± 0.12 and 1.21 ± 0.12.
Taken in the same sequence, the figures for `CCCO` [propan-1-ol] + CCCCCCCC[n+]1ccn(C)c1.F[B-](F)(F)F were 1.44 ± 0.15 and 1.27 ± 0.13.
In the case of `CC(C)=O` [acetone] + CCCCCCn1cc[n+](C)c1.F[B-](F)(F)F, the activity coefficient reads like this: (323 K) 0.85 ± 0.09; (343 K) 0.91 ± 0.09.
`CCCCCCC` [heptane] + CCCCn1cc[n+](C)c1.F[B-](F)(F)F: the activity coefficient worked out at 134 ± 14 (303 K), 115 ± 12 (323 K) and 99 ± 10 (343 K).
As for `CCc1ccccc1` [ethylbenzene] + CCn1cc[n+](C)c1.F[B-](F)(F)F, the activity coefficient amounted to 7.05 ± 0.74 (323 K) and 6.87 ± 0.72 (343 K).
Turning to `CCOCC` [diethyl ether] + CCCCn1cc[n+](C)c1.F[B-](F)(F)F, the activity coefficient (343 K) came to 8.05 ± 0.85.
Consider `ClC(Cl)Cl` [trichloromethane] + CCn1cc[n+](C)c1.F[B-](F)(F)F, for which the activity coefficient is, setting by setting: (323 K) 0.73 ± 0.08; (343 K) 0.84 ± 0.09.
Taken in the same sequence, the figures for `ClC(Cl)(Cl)Cl` [tetrachloromethane] + CCCCn1cc[n+](C)c1.F[B-](F)(F)F were 5.5 ± 0.58 and 5.73 ± 0.6.
`C=CCCCC` [hex-1-ene] + CCCCCCCC[n+]1ccn(C)c1.F[B-](F)(F)F: the activity coefficient is 7.92 ± 0.83 (303 K), 7.51 ± 0.79 (323 K) and 7.42 ± 0.78 (343 K).
Regarding `Cc1ccccc1` [toluene] + CCCCCCCC[n+]1ccn(C)c1.F[B-](F)(F)F, the activity coefficient stood at 1.75 ± 0.18 (323 K) and 1.82 ± 0.19 (343 K).
The corresponding values for `CCOCC` [diethyl ether] + CCCCCCCC[n+]1ccn(C)c1.F[B-](F)(F)F are 3.2 ± 0.34 and 3.39 ± 0.36.
The corresponding values for `CCC(C)=O` [butanone] + CCCCCCCC[n+]1ccn(C)c1.F[B-](F)(F)F are 1.01 ± 0.1 and 1.04 ± 0.11.
Taken in the same sequence, the figures for `CCc1ccccc1` [ethylbenzene] + CCCCCCn1cc[n+](C)c1.F[B-](F)(F)F were 3.63 ± 0.38 and 4.05 ± 0.43.
Turning to `CO` [methanol] + CCn1cc[n+](C)c1.F[B-](F)(F)F, the activity coefficient is 0.43 ± 0.05 (303 K), 0.43 ± 0.05 (323 K) and 0.42 ± 0.05 (343 K).
For the compound `CC(C)CC(C)(C)C` [2,2,4-trimethylpentane] + CCCCn1cc[n+](C)c1.F[B-](F)(F)F, the activity coefficient (303 K) was 145 ± 15, the activity coefficient (323 K) is 127 ± 13 and the activity coefficient (343 K) was determined as 125 ± 13.
With `ClC(Cl)Cl` [trichloromethane] + CCCCCCCC[n+]1ccn(C)c1.F[B-](F)(F)F, the activity coefficient is 0.62 ± 0.07 (323 K) and 0.7 ± 0.07 (343 K).
As to `ClC(Cl)Cl` [trichloromethane] + CCCCn1cc[n+](C)c1.F[B-](F)(F)F, the activity coefficient reads like this: (323 K) 1.13 ± 0.12; (343 K) 1.29 ± 0.13.
As to `CCCCCCC` [heptane] + CCCCCCCC[n+]1ccn(C)c1.F[B-](F)(F)F, the activity coefficient by setting is: (303 K) 16.7 ± 1.8; (323 K) 16.3 ± 1.7; (343 K) 15.2 ± 1.6.
Regarding `CCCO` [propan-1-ol] + CCn1cc[n+](C)c1.F[B-](F)(F)F, the activity coefficient (323 K) is 0.95 and the activity coefficient (343 K) turned out to be 0.87.
On to `c1ccccc1` [benzene] + CCCCCCn1cc[n+](C)c1.F[B-](F)(F)F, for which the activity coefficient came out at 1.63 ± 0.17 (303 K), 1.65 ± 0.17 (323 K) and 1.68 ± 0.18 (343 K).
Taken in the same sequence, the figures for `CCCCCC` [hexane] + CCCCCCCC[n+]1ccn(C)c1.F[B-](F)(F)F were 13.2 ± 1.4, 12.8 ± 1.4 and 12.2 ± 1.3.
As for `CCO` [ethanol] + CCCCCCn1cc[n+](C)c1.F[B-](F)(F)F, the activity coefficient by setting is: (323 K) 1.47 ± 0.15; (343 K) 1.31 ± 0.13.
With `C=CCCCC` [hex-1-ene] + CCn1cc[n+](C)c1.F[B-](F)(F)F, the activity coefficient by setting is: (303 K) 46.2 ± 4.9; (323 K) 43.2 ± 4.5; (343 K) 36.6 ± 3.9.
For `ClC=C(Cl)Cl` [trichloroethene] + CCCCn1cc[n+](C)c1.F[B-](F)(F)F, the activity coefficient amounted to 3.98 ± 0.42 (323 K) and 4.32 ± 0.45 (343 K).
On to `CO` [methanol] + CCCCn1cc[n+](C)c1.F[B-](F)(F)F, for which the activity coefficient is, setting by setting: (303 K) 1.32 ± 0.14; (323 K) 1.21 ± 0.12; (343 K) 1.07 ± 0.11.
Regarding `CCO` [ethanol] + CCn1cc[n+](C)c1.F[B-](F)(F)F, under “323 K”, the activity coefficient was 0.76 ± 0.08.
As to `CCO` [ethanol] + CCCCn1cc[n+](C)c1.F[B-](F)(F)F, the activity coefficient (323 K) came out at 1.91 ± 0.2 and the activity coefficient (343 K) amounted to 1.63 ± 0.17.
The corresponding values for `ClC=C(Cl)Cl` [trichloroethene] + CCCCCCCC[n+]1ccn(C)c1.F[B-](F)(F)F are 1.67 ± 0.17 and 1.76 ± 0.18.
Regarding `c1ccccc1` [benzene] + CCCCn1cc[n+](C)c1.F[B-](F)(F)F, the activity coefficient (303 K) amounted to 2.39 ± 0.25, the activity coefficient (323 K) came out at 2.43 ± 0.26 and the activity coefficient (343 K) amounted to 2.48 ± 0.26.
